The text below walks through data of PubChem BioAssay AID1963597 (National Center for Advancing Translational Sciences (NCATS), 2024).

Each structure is given as a SMILES string. Bounds are passed on as bounds.

The series concerns human liver microsomes, metabolic stability half-life. The series can be described thus: NCATS Human Liver Microsomal (HLM) Stability Profiling. Particulars: higher = more stable; screened at 1 µM (by protocol). The essentials:
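Substrate depletion (in vitro t1/2): 1 µM compound with 0.5 mg/mL microsomes and NADPH regenerating system, phosphate buffer pH 7.4, 37 °C. Sampled at 0, 5, 10, 15, 30, 60 min into cold acetonitrile with albendazole internal standard for MS quantification.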
The term half-life denotes how long it takes for the measured level to halve. `O=C(NCC1CCN(Cc2cccc(Cl)c2)CC1)[C@@H]1CCCN(c2ncnc3c2nc2n3CCCC2)C1` yielded a half-life of 8.65 min. Then `CCCN(CCC)CCc1cccc2c1CC(=O)N2`, with > 120 min; and `CNS(=O)(=O)c1ccc(Cc2c(-c3cccc(-c4ccccc4)c3)[nH]n(-c3nc(C(=O)O)cs3)c2=O)cc1`, with > 120 min; and `CN1CC(=O)N/C1=N/C(=O)Nc1cccc(Cl)c1`, with 24.1 min. Then `O=C(Cn1cnc2onc(-c3ccc(F)cc3)c2c1=O)Nc1cccc(C(F)(F)F)c1`, with 40.4 min. `CCN(CC)C(=O)SCc1ccc(Cl)cc1` yielded a half-life of 2.59 min. In turn, `CCOc1cc(NC(C)=O)ccc1C(=O)OC` gave a half-life of 6.75 min. As to `CN(C)S(=O)(=O)c1ccc(S(=O)(=O)N(Cc2ccco2)Cc2ccccc2Cl)cc1`, the half-life stood at 3.33 min. Take `CC(C)(C)NCC(O)COc1cccc2c1CCC(=O)N2` (stereo unspecified): the half-life was > 120 min. To `CCOc1ccc(NC(=O)N2CCN(c3ccc(Cl)c(Cl)c3)CC2)cc1` belongs > 120 min; to `CCOCc1cc(CN2CCN(c3cccc(C(F)(F)F)c3)CC2)c(O)c2ncccc12`, 12.6 min. The molecule `N#Cc1cc(-c2n[nH]c(-c3ccncc3)n2)ccn1` gave a half-life of 90.6 min. To `O=C1c2ccccc2S(=O)(=O)N1CCCCN1CCN(c2ncccn2)CC1` belongs 24.5 min; to `CCOC(=O)c1sc(NC(=O)c2c(-c3ccccc3)c(-c3ccccc3)nn(C)c2=O)nc1C`, > 120 min; to `Cc1ccc(-c2c(-c3nn(C)c4ncnc(N5CCC(N6CCCCC6)C5)c34)cnn2C)cc1` (stereo unspecified), > 120 min.

In the case of `CC(Cc1ccccc1)(NC(=O)CN)c1ccccc1` (stereo unspecified), the half-life is > 120 min. In the case of `CC(=O)c1ccc(C(=O)N(Cc2cccnc2)c2nc3c(C)c(C)ccc3s2)cc1`, the half-life stood at 6.25 min.

Turning to `OCCN1CCN(CC/C=C2/c3ccccc3Sc3ccc(C(F)(F)F)cc32)CC1`, the half-life came out at 48.4 min.

In the case of `COc1cc2c(c(OC)c1OC)-c1ccc(OC)c(=O)cc1[C@@H](NC(C)=O)CC2`, the half-life is > 120 min.

Regarding `C1Cc2[nH]nc(-c3nn[nH]n3)c2C1`, the half-life is > 120 min.

`O=C(Nc1cccc(-c2nc3cc(Cl)ccc3o2)c1)c1ccccc1` had a half-life of 5.41 min. `Cc1noc(-c2ccc(-c3ccc(CC(=O)O)cc3)cc2)c1NC(=O)O[C@H](C)c1ccccc1Cl` returned a half-life of 29.7 min. To `Cc1cc(C(C)(C)C)c(O)c(C(C)(C)C)c1` belongs > 120 min; to `COc1ccc(C(=O)N2CCCC2=O)cc1`, > 120 min. `Cc1ccc(C)c(N2CCN(CCCNC(=O)c3ccc4nc(C(C)C)oc4c3)CC2)c1`: the half-life was determined as 13.8 min. To `Cn1ncc(Cl)c1-c1cc(C(=O)N[C@H](CN)Cc2ccc(F)c(F)c2)sc1Cl` belongs 109 min; to `Cc1ccc(-n2c(SCc3ccccc3F)nc3[nH]ncc3c2=O)cc1C`, 21.6 min. Consider `COc1ccc(NC(=O)Cn2ccn(-c3ccc(C)c(C)c3)c(=O)c2=O)cc1Cl`, for which the half-life was > 120 min. As for `CN1c2cc(C(=O)Nc3ccc(S(N)(=O)=O)cc3)ccc2C(=O)N2CCCCC21` (stereo unspecified), the half-life amounted to 32.8 min.

Take `CCOc1cc(=O)n2c(c1C(=O)Nc1ccc(S(N)(=O)=O)cc1)CCCC2`: the half-life was > 120 min. To `CCOc1ncc(S(=O)(=O)N2CCN(CC)CC2)cc1-c1nc2c(CC)n(CCOC)nc2c(=O)[nH]1` belongs 76.2 min.

The molecule `CO[C@@H](Cc1ccc(OCCc2nc(-c3ccccc3)oc2C)c2ccsc12)C(=O)O` showed a half-life of 72.2 min.

The molecule `CCOC(=O)NNc1nncc2ccccc12` returned a half-life of 97.1 min. To `O=C(Nc1cccc(-c2nc3ccccc3o2)c1)c1ccccc1Cl` belongs 9.1 min; to `Cc1ccc(N2CCN(C(=O)C3CCN(c4ncnc5c4nc4n5CCCCC4)CC3)CC2)c(C)c1`, > 120 min. Then `CC[C@H](C)C(=O)O[C@H]1C[C@@H](C)C=C2C=C[C@H](C)[C@H](CC[C@@H]3C[C@@H](O)CC(=O)O3)[C@H]21`, with 7.05 min; and `CCC(CC)Nc1nc(C)c(-c2ccc(OC(F)(F)F)cc2OC)nc1OC`, with 20.5 min; and `Nc1nc2ccccc2n1Cc1ccc(F)cc1`, with > 120 min.

In turn, `COc1ccccc1CN[C@H]1C2CCN(CC2)[C@H]1C(c1ccccc1)c1ccccc1` showed a half-life of 35 min. As to `Cc1nc(N)ncc1-c1nc(N2CCOCC2)c2sc(C(C)(C)O)cc2n1`, the half-life was > 120 min. To `COc1ccc(-c2oc3cc(OC)ccc3c2C(=O)c2ccc(C#N)cc2)cc1` belongs 20.6 min; to `COc1ccccc1OC[C@H](O)COC(N)=O`, > 120 min. The molecule `COc1cc(C(=O)NC(c2ccccc2Cl)c2cc(Cl)c3cccnc3c2O)cc(OC)c1OC` (stereo unspecified) gave a half-life of 25.6 min. For the molecule `CC(CC1c2ccccc2CCc2ccccc21)CN(C)C` (stereo unspecified), the half-life worked out at 87.7 min. Then `OC1(c2ccc(Cl)cc2)CCNCC1`, with > 120 min; and `CC(C)(C)NC[C@H](O)c1cc(O)cc(O)c1`, with > 120 min; and `Fc1ccc([C@@H]2CCNC[C@H]2COc2ccc3c(c2)OCO3)cc1`, with 71.3 min. To `N#Cc1ccnc(Nc2cc(C3CCN(C4COC4)CC3)cc(N3CCC(F)(F)C3)n2)c1` belongs 29.3 min. To `NC1CCC(Nc2cc(-c3cccc(NCc4cccc(F)c4)n3)c(Cl)cn2)CC1` (stereo unspecified) belongs > 120 min; to `CNC(=O)[C@H](Cc1ccccc1)NC(=O)[C@H](CC(C)C)[C@H](CSc1cccs1)C(=O)NO`, 110 min; to `Nc1ccccc1NC(=O)c1ccc(CNc2nccc(-c3cccnc3)n2)cc1`, > 120 min. Take `CC#C[C@@H](CC(=O)O)c1ccc(OCc2ccc(CN3CCC4(C=Cc5ccccc54)CC3)s2)cc1`: the half-life is 25.1 min. To `COc1ccc(C(=O)c2ccccc2O)c(O)c1` belongs 8.9 min; to `COP(=O)(OC)Oc1ccc([N+](=O)[O-])cc1`, 13.3 min. To `COc1nccc(-c2c(-c3ccc(F)cc3)ncn2C2CCNCC2)n1` belongs > 120 min.

Regarding `COc1ccc(C(=O)C2CCN(CC(=O)N(Cc3nc4c(c(=O)[nH]3)COCC4)CC3CC3)CC2)cc1`, the half-life was 81.7 min.

`CNP(=O)(OC)Oc1ccc(C(C)(C)C)cc1Cl` (stereo unspecified) yielded a half-life of 47.5 min. To `COc1cc(C=O)ccc1O` belongs 97.1 min. To `CN(C)C(CCOc1cccc2ccccc12)c1ccccc1` (stereo unspecified) belongs 12.8 min; to `CCN(CC)C(=O)/C(Cl)=C(\C)OP(=O)(OC)OC`, > 120 min.

`CCC(=O)c1ccc2c(c1)N(CCCN(C)C)c1ccccc1S2` had a half-life of 15.4 min. To `CO/N=C(\C(=O)O)c1csc(NC(=O)CCl)n1` belongs 11.4 min; to `CCCCOCc1cc(CN2CCN(c3cccc(Cl)c3)CC2)c(O)c2ncccc12`, 10.3 min. Then `NC(=NCCCCCCN=C(N)/N=C(\N)Nc1ccc(Cl)cc1)/N=C(\N)Nc1ccc(Cl)cc1`, with > 120 min; and `C[C@@H]1C[C@H]2[C@@H]3CCC4=CC(=O)C=C[C@]4(C)[C@@]3(F)[C@@H](O)C[C@]2(C)[C@H]1C(=O)CO`, with 57.3 min. Molecule `Cc1nc2c3ccccc3nc(NNC(=O)CCC(=O)N3CCN(c4ccc(F)cc4)CC3)n2n1` gave a half-life of 40.4 min.

For the molecule `COc1ccc(CCN(C)CCC[C@@](C#N)(c2cc(OC)c(OC)c(OC)c2)C(C)C)cc1OC`, the half-life is 7.68 min. As to `Fc1ccc(-c2nc(C3CCNCC3)sc2-c2ccnc(NC3CC3)n2)cc1`, the half-life was > 120 min. Then `CCCc1nc(C)c2c(=O)[nH]c(-c3cc(S(=O)(=O)N4CCN(CC)CC4)ccc3OCC)nn12`, with > 120 min; and `C(#Cc1cccc(CN2CCOCC2)c1)CCN1CCCCC1`, with > 120 min; and `Cn1cc(-c2ccc3nnc(Sc4ccc5nn(C)cc5c4)n3n2)cn1`, with > 120 min. Then `CN(C)c1cccc(Oc2cnc(Nc3cccc(O)c3)nc2)c1`, with 21.9 min. To `CC(C)(N)Cc1ccccc1Cl` belongs > 120 min; to `CCN1C(=O)NC(c2ccccc2)C1=O` (stereo unspecified), > 120 min. Turning to `Cc1cccc(NC(c2ccccc2F)c2ccc3ccc(C)nc3c2O)n1` (stereo unspecified), the half-life was 14.1 min. To `CNC(=O)c1cc(Oc2ccc(NC(=O)Nc3ccc(Cl)c(C(F)(F)F)c3)cc2)ccn1` belongs > 120 min; to `O=C(O)Cn1nnc(-c2cc(N3CCC(Oc4cc(F)ccc4Br)CC3)no2)n1`, > 120 min. Then `c1ccc(OCc2ccc(CCCN3CCOCC3)cc2)cc1`, with 26.7 min. Then `CCCc1ccc(OCC(=O)N2CCN(C(=O)COc3ccc(CCC)cc3OC)CC2)c(OC)c1`, with 2.8 min; and `Cc1cc(Nc2nc(N[C@@H](C)c3ccc(F)cc3)c(C#N)cc2F)n[nH]1`, with > 120 min; and `C[C@]12CC[C@@H]3c4ccc(O)cc4CC[C@H]3[C@@H]1CCC2=O`, with 34.1 min. For `CN1C(=O)COc2c(C(=O)NC3CN4CCC3CC4)cc(Cl)cc21` (stereo unspecified), the half-life is > 120 min.

As to `N#Cc1ccc(C(=O)Nc2ccc(Cl)c(-c3nc4ncccc4o3)c2)c(F)c1`, the half-life was found to be 10.3 min.

For the molecule `CC1=C(C(=O)Nc2cccc(-c3ccn[nH]3)c2)C(c2ccccc2Cl)N=C(Nc2nc3ccccc3o2)N1` (stereo unspecified), the half-life was 71.5 min.

Molecule `c1cncc(CN2CCC(n3ncc4c(N5CCOCC5)nc(-c5ccc6[nH]ccc6c5)nc43)CC2)c1` came in with a half-life of 14.9 min.

The molecule `CC1COC2(c3ccccc3Cl)c3cc(Cl)ccc3NC(=O)CN12` (stereo unspecified) displayed a half-life of 9.03 min. To `N#Cc1cccc(CN2CC(COc3ccccc3)C3(C2)CN(c2ccccc2)C3)c1` (stereo unspecified) belongs 3.65 min. The molecule `COCC(=O)Nc1c(I)c(C(=O)NCC(O)CO)c(I)c(C(=O)N(C)CC(O)CO)c1I` (stereo unspecified) yielded a half-life of 84.2 min. Then `CCCCNC(=O)NS(=O)(=O)c1ccc(C)cc1`, with 115 min.

Turning to `C[C@]12CCC(=O)C=C1[C@@H]1C[C@@H]1[C@H]1[C@@H]3[C@@H]4C[C@@H]4[C@@]4(CCC(=O)O4)[C@@]3(C)CC[C@@H]12`, the half-life is > 120 min. Then `COC(=O)C1=C(C)NC(C)=C(C(=O)O[C@@H]2CCCN(Cc3ccccc3)C2)[C@@H]1c1cccc([N+](=O)[O-])c1`, with 1.93 min.
